Data set [1] deals with Staphylococcus aureus. The data set is described as follows: Antibacterial activity against methicillin-resistant Staphylococcus aureus ATCC 43300 incubated for 18 hrs by broth microdilution method. To be noted: ATCC 43300, 18 h. The data set is classed as functional.
Data set [2] is described as follows: Cytotoxicity against human L02 cells after 48 hrs by MTT assay. To be noted: L02, 48 h. The data set is classed as cell-based. (In general: Formazan colour is commonly taken as a measure of viable cells.)
The test system of data set [3] is Escherichia coli. The data set is described as follows: Antibacterial activity against Escherichia coli ATCC 25922 incubated for 18 hrs by broth microdilution method. To be noted: ATCC 25922, 18 h. The class given is functional. For orientation: Dilution methods test growth across graded concentrations, often in twofold steps.
The subject of data set [4] is Staphylococcus aureus. The data set is described as follows: Antibacterial activity against methicillin-resistant Staphylococcus aureus ATCC 33591 incubated for 18 hrs by broth microdilution method. The class given is functional. To be noted: ATCC 33591, 18 h.
Data set [5] concerns Staphylococcus aureus. Nature of the data set: Antibacterial activity against methicillin-susceptible Staphylococcus aureus CMCC 2603 incubated for 18 hrs by broth microdilution method. The data set is classed as functional. To be noted: CMCC 2603, 18 h.
Data set [6] is described as follows: Solubility of compound in distilled water after 24 hrs by HPLC analysis. The class given is physicochemical.
Data set [7] concerns Staphylococcus aureus. The data set is described as follows: Antibacterial activity against methicillin-susceptible Staphylococcus aureus ATCC 29213 incubated for 18 hrs by broth microdilution method. The class given is functional. The note with it: ATCC 29213, 18 h.
A short description of data set [8]: Cytotoxicity against HEK293A cells after 48 hrs by MTT assay. To be noted: Homo sapiens, HEK293-A. The class given is cell-based.
In data set [9] the test system is Staphylococcus aureus. Nature of the data set: Antibacterial activity against methicillin-susceptible Staphylococcus aureus ATCC 25923 incubated for 18 hrs by broth microdilution method. The data set is classed as functional. To be noted: ATCC 25923, 18 h.
Data set [10] has as its system Pseudomonas aeruginosa. The data set is described as follows: Antibacterial activity against Pseudomonas aeruginosa ATCC 27853 incubated for 18 hrs by broth microdilution method. The note with it: ATCC 27853, 18 h. The class given is functional.
For data set [11], the system named is Staphylococcus aureus. The data set is described as follows: Antibacterial activity against methicillin-susceptible Staphylococcus aureus ATCC 6538 incubated for 18 hrs by broth microdilution method. The data set is classed as functional. The note with it: ATCC 6538, 18 h.
Data set [12] can be described thus: Octanol/water partition coefficient, log P of the compound by HPLC assay. The data set is classed as physicochemical.

Values after ≈ are worked out from the molar mass of the structure shown.

With `NC(=O)[C@H]1CN(c2ccc(-n3cc(-c4ccccn4)cn3)c(F)c2)C(=O)O1`, the MIC is 16 µg/mL (≈ 43.6 µM) in data set [1]; > 32 µg/mL in [3]; 16 µg/mL (≈ 43.6 µM) in data set [4]; 16 µg/mL (≈ 43.6 µM) in data set [5]; 16 µg/mL (≈ 43.6 µM) in data set [7]; 16 µg/mL (≈ 43.6 µM) in data set [9]. Also, the MIC in data set [10] is > 32 µg/mL; in [11], 16 µg/mL (≈ 43.6 µM). For the same compound, the concentration for half-maximal inhibition (IC50) in [2] worked out at 119 µg/mL (≈ 324 µM); in data set [8], 152 µg/mL (≈ 414 µM). In data set [6], the concentration in solution (solubility at 24 h) was 27.2 µM (≈ 9.99 µg/mL). In [12], this compound returned a logP of 1.59.
Consider `COC(=O)NC[C@H]1CN(c2ccc(-n3cc(-c4ccccn4)cn3)c(F)c2)C(=O)O1`, for which the MIC in [1] is 4 µg/mL (≈ 9.72 µM); in data set [3] it was > 32 µg/mL; in data set [4], 4 µg/mL (≈ 9.72 µM); in data set [5], 4 µg/mL (≈ 9.72 µM); in data set [7], 4 µg/mL (≈ 9.72 µM); in data set [9] it was 4 µg/mL (≈ 9.72 µM). Further, the MIC in [10] is > 32 µg/mL; in [11] it was 4 µg/mL (≈ 9.72 µM). Further, the results for the IC50 in data set [2] and in [8] were 71 µg/mL (≈ 173 µM) and 306 µg/mL (≈ 744 µM), respectively. Further, the concentration in solution in data set [6] (solubility at 24 h) came to 34.1 µM (≈ 14 µg/mL). For the same compound, the logP in [12] came out at 2.03.
Regarding `O=C1O[C@@H](CN2CCOCC2)CN1c1ccc(-n2cc(-c3ccccn3)cn2)c(F)c1`, the MIC in [1], in [3], in [4], in [5], in data set [7] and in data set [9] was > 32 µg/mL each time. In addition, the MIC in data set [10] and in data set [11] was > 32 µg/mL throughout. In addition, the IC50 in data set [2] and in data set [8] was > 400 µg/mL each time. Besides, the concentration in solution in data set [6] (solubility at 24 h) was 109 µM (≈ 46.2 µg/mL). Further, the logP in data set [12] came out at 2.
In the case of `O=CNC[C@H]1CN(c2ccc(-n3cc(-c4ccccn4)cn3)c(F)c2)C(=O)O1`, the MIC was 8 µg/mL (≈ 21 µM) in [1]; > 32 µg/mL in data set [3]; 8 µg/mL (≈ 21 µM) in [4]; 8 µg/mL (≈ 21 µM) in data set [5]; 8 µg/mL (≈ 21 µM) in [7]; 8 µg/mL (≈ 21 µM) in [9]. In addition, the MIC in data set [10] is > 32 µg/mL; in data set [11] it was 8 µg/mL (≈ 21 µM). The 50% inhibitory concentration (IC50) in [2] and in [8] was > 400 µg/mL throughout. Also, the solubility at 24 h in [6] was 217 µM (≈ 82.8 µg/mL). This compound yielded a logP in [12] of 1.19.
Turning to `CN(CCO)C[C@H]1CN(c2ccc(-n3cc(-c4ccccn4)cn3)c(F)c2)C(=O)O1`, the minimum inhibitory concentration (MIC) in data set [1], in data set [3], in [4], in [5], in [7] and in data set [9] was > 32 µg/mL in each case. For the same compound, the MIC in [10] and in data set [11] was > 32 µg/mL each time. The values for the half-inhibitory concentration (IC50) in [2] and in data set [8] were 134 µg/mL (≈ 326 µM) and 367 µg/mL (≈ 892 µM), respectively. This compound also had a solubility at 24 h in [6] of 669 µM (≈ 275 µg/mL). Further, the log partition coefficient (logP) in data set [12] turned out to be 1.44.
For `CN1CCN(C[C@H]2CN(c3ccc(-n4cc(-c5ccccn5)cn4)c(F)c3)C(=O)O2)CC1`, the MIC in [1], in data set [3], in [4], in data set [5], in data set [7] and in [9] was > 32 µg/mL throughout. In addition, the MIC in data set [10] and in data set [11] was > 32 µg/mL each time. In addition, the IC50 in data set [2] and in data set [8] was 70 µg/mL (≈ 160 µM) in each case. In addition, the solubility at 24 h in data set [6] was determined as 1690 µM (≈ 738 µg/mL). In addition, in data set [12], the lipophilicity (logP) stood at 2.2.
Take `CONC(=O)[C@H]1CN(c2ccc(-n3cc(-c4ccccn4)cn3)c(F)c2)C(=O)O1`: the minimal inhibitory concentration (MIC) was 16 µg/mL (≈ 40.3 µM) in data set [1]; > 32 µg/mL in data set [3]; 16 µg/mL (≈ 40.3 µM) in data set [4]; 16 µg/mL (≈ 40.3 µM) in data set [5]; 16 µg/mL (≈ 40.3 µM) in data set [7]; 16 µg/mL (≈ 40.3 µM) in data set [9]. For the same compound, the MIC is > 32 µg/mL in data set [10] and 16 µg/mL (≈ 40.3 µM) in data set [11]. In addition, the concentration for half-maximal inhibition (IC50) in [2] and in data set [8] was > 400 µg/mL in each case. This compound gave a solubility at 24 h in data set [6] of 78.1 µM (≈ 31 µg/mL). Also, in data set [12], the logP was ≥ 1.58.
On to `O=C1O[C@@H](CSc2cccs2)CN1c1ccc(-n2cc(-c3ccccn3)cn2)c(F)c1`, for which the minimal inhibitory concentration (MIC) in [1], in data set [3], in [4], in data set [5], in [7] and in data set [9] was > 32 µg/mL throughout. For the same compound, the MIC in data set [10] and in [11] was > 32 µg/mL in each case. The half-inhibitory concentration (IC50) in [2] and in data set [8] was > 400 µg/mL in each case. Further, in data set [6], the solubility at 24 h came out at 8.5 µM (≈ 3.85 µg/mL). The logP in [12] was 4.29.
Take `O=C1CCC(=O)N1C[C@H]1CN(c2ccc(-n3cc(-c4ccccn4)cn3)c(F)c2)C(=O)O1`: the MIC in data set [1], in data set [3], in [4], in data set [5], in data set [7] and in data set [9] was > 32 µg/mL each time. Further, the MIC in data set [10] and in data set [11] was > 32 µg/mL each time. In addition, the IC50 in data set [2] and in data set [8] was > 400 µg/mL in each case. The compound further showed a solubility at 24 h in [6] of 45.3 µM (≈ 19.7 µg/mL). In data set [12], the logP was determined as 1.58.
For `O=C1CSC(=O)N1C[C@H]1CN(c2ccc(-n3cc(-c4ccccn4)cn3)c(F)c2)C(=O)O1`, the minimal inhibitory concentration (MIC) in [1], in [3], in [4], in data set [5], in [7] and in [9] was > 32 µg/mL in each case. Moreover, the MIC in data set [10] and in [11] was > 32 µg/mL throughout. Further, the IC50 in [2] is > 400 µg/mL; in data set [8], 283 µg/mL (≈ 624 µM). This compound also registered a solubility at 24 h in data set [6] of 26.9 µM (≈ 12.2 µg/mL). For the same compound, the lipophilicity (logP) in data set [12] was 2.18.
Regarding `O=C1CNC(=O)N1C[C@H]1CN(c2ccc(-n3cc(-c4ccccn4)cn3)c(F)c2)C(=O)O1`, the minimum inhibitory concentration (MIC) in [1], in [3], in [4], in data set [5], in data set [7] and in [9] was > 32 µg/mL each time. For the same compound, the minimum inhibitory concentration (MIC) in data set [10] and in data set [11] was > 32 µg/mL in each case. In addition, the IC50 in data set [2] and in data set [8] was > 400 µg/mL in each case. Besides, the solubility at 24 h in data set [6] is 1630 µM (≈ 713 µg/mL). Further, the lipophilicity (logP) in data set [12] worked out at 1.25.
For the compound `O=C1O[C@@H](CN2CCC(O)CC2)CN1c1ccc(-n2cc(-c3ccccn3)cn2)c(F)c1`, the minimal inhibitory concentration (MIC) in data set [1], in data set [3], in [4], in data set [5], in data set [7] and in data set [9] was > 32 µg/mL each time. Also, the minimal inhibitory concentration (MIC) in [10] and in data set [11] was > 32 µg/mL throughout. In addition, the IC50 in [2] and in [8] was > 400 µg/mL each time. The compound also gave a solubility at 24 h in [6] of 45.9 µM (≈ 20.1 µg/mL). In [12], this compound returned a log partition coefficient (logP) of 1.63.
As for `COC[C@H]1CN(c2ccc(-n3cc(-c4ccccn4)cn3)c(F)c2)C(=O)O1`, the MIC in data set [1], in data set [3], in data set [4], in data set [5], in data set [7] and in data set [9] was > 32 µg/mL in each case. Moreover, the minimal inhibitory concentration (MIC) in data set [10] and in data set [11] was > 32 µg/mL throughout. The IC50 in data set [2] and in data set [8] was > 400 µg/mL in each case. The compound also registered a solubility at 24 h in data set [6] of 36.2 µM (≈ 13.3 µg/mL). The compound further had a logP in [12] of 2.18.

One may read the MIC as the lowest concentration found to suppress growth. A low value points to inhibition by little substance. The IC50 is the midpoint of a concentration-inhibition curve. Read a high IC50 as a need for much substance. As a reminder, the solubility is how much of the substance goes into solution per volume. The low end stands for a poorly soluble substance, the high end for a readily soluble substance. Usually logP stands for the decadic logarithm of the partition coefficient of the neutral form, usually between octanol and water. High values mean a more lipophilic compound, low ones a more hydrophilic compound.

Source of the values: ChEMBL document CHEMBL3739261, “Synthesis and antibacterial activity evaluation of C-5 side chain modified analogues of FYL-66, a potential agent against methicillin-resistant Staphylococcus aureus” (Medchemcomm, 2015).
